Data from PubChem BioAssay (NCI).
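Growth conditions: 96-well plates. Treatment: test compound, 48 hours, 5 concentrations. Analysis: linear interpolation between bracketing concentrations; unreached endpoints set to highest concentration. GI50: concentration for 50% inhibition of growth. TGI: total growth inhibition.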

What was measured:
Assay in all cases: NCI anticancer screen, dose series, 48 h
OVCAR-8 ovarian = system: OVCAR-8 ovarian
EKVX NSCLC = system: EKVX NSCLC
NCI-H23 lung = system: NCI-H23 lung
KM12 colon = system: KM12 colon
UO-31 renal = system: UO-31 renal
K-562 leukemia = system: K-562 leukemia
SW-620 colon = system: SW-620 colon
HL-60(TB) leukemia = system: HL-60(TB) leukemia
SNB-19 CNS = system: SNB-19 CNS
DU-145 prostate = system: DU-145 prostate

SMILES	TGI (OVCAR-8 ovarian) [µM]	TGI (EKVX NSCLC) [µM]	TGI (NCI-H23 lung) [µM]	TGI (KM12 colon) [µM]	TGI (UO-31 renal) [µM]	TGI (K-562 leukemia) [µM]	TGI (SW-620 colon) [µM]	TGI (HL-60(TB) leukemia) [µM]	TGI (SNB-19 CNS) [µM]	GI50 (OVCAR-8 ovarian) [µM]	GI50 (NCI-H23 lung) [µM]	GI50 (KM12 colon) [µM]	GI50 (DU-145 prostate) [µM]	TGI (DU-145 prostate) [µM]	GI50 (UO-31 renal) [µM]	GI50 (K-562 leukemia) [µM]	GI50 (SW-620 colon) [µM]	GI50 (HL-60(TB) leukemia) [µM]	GI50 (SNB-19 CNS) [µM]	GI50 (EKVX NSCLC) [µM]
Nc1c(C(=O)Nc2ccccc2O)[n+]([O-])c2ccccc2[n+]1[O-]	> 100	> 100	84.7	> 100	> 100	> 100	48.6	> 100	> 100											
O=S(=O)(Cc1ccccc1)SCc1ccccc1	28.8	> 100	52.7	> 100	> 100	33.5	15.5	21.5	> 100											
C1CCN2CC3CONC3C2C1 (stereo not drawn)	> 100	> 100	> 100	> 100	> 100	> 100	> 100	> 100	> 100											
Cn1cc(NC(=O)c2cc(NC(=O)CCCCCCCC(=O)Nc3cc(C(=O)Nc4cc(C(=O)NCCC(=N)N)n(C)c4)n(C)c3)cn2C)cc1C(=O)NCCC(=N)N	42.9	68.2	33.7	20	> 100	> 100	> 100	16.3	> 100											
CN(C)CCS(=O)(=O)Nc1cc(-c2ccc3ncnc(Nc4ccc(F)c(Cl)c4)c3c2)cnc1Cl	> 51.7		> 100	4.25	1.69	> 54.5	> 38	9.15	> 100	1.77	0.577	1.46	0.566	> 37.3	0.259	2.95	1.2	1.33	1.91	
Cc1c(C)c2ccc(OC(C)C(=O)O)cc2oc1=O (stereo not drawn)	> 100	> 100	> 100	> 100	> 100	> 100	> 100	> 100	> 100											
NNC(=O)N/N=C1\CNC(=O)C(=O)C1c1nc2ccccc2s1 (stereo not drawn)	> 100	> 100	> 100	> 100	> 100	> 100	> 100	> 100	> 100											
Nc1c(-c2nc3ccccc3s2)[n+]([O-])c2ccccc2[n+]1[O-]	> 100	> 100	51.4	> 100	77.7	> 100	> 100	93.5	> 100											
CC1(C)CC(O)CC(C)(C)N1.CC1(C)CC(O)CC(C)(C)N1.CC1(C)CC(O)CC(C)(C)N1.CC1(C)CC(O)CC(C)(C)N1.Cl.[Ti]	> 100		> 100	> 100	> 100	> 100	> 100			> 100	> 100	> 100			> 100	> 100	> 100			
O=C(Nc1cccc(-n2cc(-c3ccncc3)c(-c3ccc(O)c(Cl)c3)n2)c1)Nc1ccc(Cl)c(Cl)c1	5.61		6.62	3.11	8.34		7.32	7.02	> 100	1.65	1.88	1.4	2.39	12.1	2.67		2.63	2.71	3.06	
Nc1ncnc2sc(Nc3ccccc3)nc12	> 100		> 100	> 100	> 100	> 100	> 100	64.7	> 100											
COc1cc2c3c(n(CCCN4CCSCC4)c(=O)c2cc1OC)-c1cc2c(cc1C3=O)OCO2	> 100	> 100	> 100	> 100	> 100	47.8	> 100		> 100	> 100	> 100	> 100	> 100	> 100	> 100	20.2	96.8		53.8	> 100
COc1ccc(C(=O)/C=C/c2ccc(OCc3ccccc3)c(OC)c2)cc1OC	> 100		66.7	> 100	> 100	> 100	> 100	32.5	> 100	3.1	4.18	3.48	2.76	8.1	4.16	3.4	3.05	3.67	5.31	
NC(=O)C(=O)Cc1nc2ccccc2s1	> 100	> 100	> 100	> 100	> 100	> 100	> 100	> 100	> 100											
CCOc1ccc(/C=C2/C(=O)N=C(N)N=C2N)cc1OCC	> 100	> 100	> 100	> 100	> 100	> 100	> 100	> 100	> 100											
Cc1nn2c(-c3nc4cc(Cl)c(Cl)cc4[nH]3)c(-c3ccc(F)cc3)nc2s1	15		> 61.4		3.93	> 100	> 100	> 100	> 76.8	2.11	21.7		5.19	> 100	1.64	> 100	10.2	> 100	5.18	
CC(=O)c1c(O)c2c([nH]c1=O)CCCC2	> 100	> 100	> 100		31.2	> 100	> 100	> 100	33.9											
CCN(CC)CCCNc1c2ccc(Cl)cc2nc2ccc(OC)cc12	3.44			4.45	4.83	6.08	2.36		4.57	0.0552		0.0541	0.0476	4.08	1.63	0.0308	0.0401		0.0587	
O=c1[nH]c(=O)n(C2CC(O)C(O)C(CO)O2)cc1F (stereo not drawn)	> 100	> 100	> 100	> 100	> 100	> 100	> 100	> 100	> 100											
